The record followed here is BindingDB's records for patent US20260062387 (Mitsubishi Tanabe Pharma, 2026).

What is called IC50 is the point on the concentration scale where inhibition reaches its midpoint. Read a high IC50 as lower potency.

Holding throughout (test): SIK1, SIK2, and SIK3 inhibition test
In test [1] the target is Serine/threonine-protein kinase SIK2 (Homo sapiens, UniProt Q9H0K1). On the procedure:
(§1) The inhibitory activity of the compound for SIK1, SIK2, and SIK3 enzymes was assayed by measuring the amount of ADP, an enzyme reaction product, with ADP-Glo™ Max Assay (Promega). Enzymes, specifically, GST-tagged SIK1 (Carna Biosciences, Inc.), GST-tagged SIK2 (Carna Biosciences, Inc.), and GST-tagged SIK3 (SignalChem) were prepared in a reaction buffer (15 mM tris-hydrochloric acid buffer (pH 7.5), 0.001% Triton X-100, 0.01% BSA) so that the final concentration would be 20 nM, 3 nM, and 100 nM. Enzyme solutions were thus formed. In a reaction buffer, AMARA Peptide (SignalChem) as a substrate with a final concentration of 200 μM (SIK1, SIK2) or 100 μM (SIK3), ATP (Promega) with a final concentration of 1 mM, and magnesium chloride with a final concentration of 5 mM were prepared. Substrate solutions were thus formed. The enzyme solution, the substrate solution, and a DMSO solution of a concentration of the test compound were mixed together and reacted at room temperature for 2 hours. After the reaction, ADP-Glo™ Reagent (Promega) was added, and the reaction was performed at room temperature for 30 minutes. Subsequently, ADP-Glo™ Max Detection Reagent (Promega) was added, and the reaction was performed at room temperature for 30 minutes. The emission by the luciferase reaction was measured with PHERAstar FSX (BMG LABTECH).

In test [2] the target is Serine/threonine-protein kinase SIK3 (Homo sapiens, UniProt Q9Y2K2). On the procedure:
as §1

Test [3] addresses Serine/threonine-protein kinase SIK1 (Homo sapiens, UniProt P57059). The protocol:
as §1

Serine/threonine-protein kinase SIK1, sequence (P57059 whole entry): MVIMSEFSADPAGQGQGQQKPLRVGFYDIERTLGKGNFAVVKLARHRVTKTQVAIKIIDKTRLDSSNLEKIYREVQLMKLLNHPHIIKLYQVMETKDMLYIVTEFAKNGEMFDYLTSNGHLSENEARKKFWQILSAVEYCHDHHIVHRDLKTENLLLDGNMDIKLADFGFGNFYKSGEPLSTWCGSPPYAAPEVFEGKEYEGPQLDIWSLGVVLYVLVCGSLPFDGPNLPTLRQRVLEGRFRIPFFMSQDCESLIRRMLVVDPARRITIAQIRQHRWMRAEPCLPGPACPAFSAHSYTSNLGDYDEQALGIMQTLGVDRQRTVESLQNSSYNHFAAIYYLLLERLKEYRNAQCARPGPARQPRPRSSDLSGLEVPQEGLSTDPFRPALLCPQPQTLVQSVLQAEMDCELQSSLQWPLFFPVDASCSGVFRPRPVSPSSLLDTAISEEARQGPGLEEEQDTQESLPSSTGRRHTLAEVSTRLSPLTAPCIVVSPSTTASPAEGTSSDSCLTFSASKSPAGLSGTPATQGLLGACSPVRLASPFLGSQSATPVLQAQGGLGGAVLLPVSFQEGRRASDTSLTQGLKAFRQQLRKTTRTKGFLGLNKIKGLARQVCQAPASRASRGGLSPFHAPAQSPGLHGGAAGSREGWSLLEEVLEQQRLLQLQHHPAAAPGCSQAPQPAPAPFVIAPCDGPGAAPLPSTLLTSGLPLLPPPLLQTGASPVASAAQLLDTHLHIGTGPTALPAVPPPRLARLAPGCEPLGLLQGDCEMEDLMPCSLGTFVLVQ
Serine/threonine-protein kinase SIK3, sequence (Q9Y2K2 whole entry): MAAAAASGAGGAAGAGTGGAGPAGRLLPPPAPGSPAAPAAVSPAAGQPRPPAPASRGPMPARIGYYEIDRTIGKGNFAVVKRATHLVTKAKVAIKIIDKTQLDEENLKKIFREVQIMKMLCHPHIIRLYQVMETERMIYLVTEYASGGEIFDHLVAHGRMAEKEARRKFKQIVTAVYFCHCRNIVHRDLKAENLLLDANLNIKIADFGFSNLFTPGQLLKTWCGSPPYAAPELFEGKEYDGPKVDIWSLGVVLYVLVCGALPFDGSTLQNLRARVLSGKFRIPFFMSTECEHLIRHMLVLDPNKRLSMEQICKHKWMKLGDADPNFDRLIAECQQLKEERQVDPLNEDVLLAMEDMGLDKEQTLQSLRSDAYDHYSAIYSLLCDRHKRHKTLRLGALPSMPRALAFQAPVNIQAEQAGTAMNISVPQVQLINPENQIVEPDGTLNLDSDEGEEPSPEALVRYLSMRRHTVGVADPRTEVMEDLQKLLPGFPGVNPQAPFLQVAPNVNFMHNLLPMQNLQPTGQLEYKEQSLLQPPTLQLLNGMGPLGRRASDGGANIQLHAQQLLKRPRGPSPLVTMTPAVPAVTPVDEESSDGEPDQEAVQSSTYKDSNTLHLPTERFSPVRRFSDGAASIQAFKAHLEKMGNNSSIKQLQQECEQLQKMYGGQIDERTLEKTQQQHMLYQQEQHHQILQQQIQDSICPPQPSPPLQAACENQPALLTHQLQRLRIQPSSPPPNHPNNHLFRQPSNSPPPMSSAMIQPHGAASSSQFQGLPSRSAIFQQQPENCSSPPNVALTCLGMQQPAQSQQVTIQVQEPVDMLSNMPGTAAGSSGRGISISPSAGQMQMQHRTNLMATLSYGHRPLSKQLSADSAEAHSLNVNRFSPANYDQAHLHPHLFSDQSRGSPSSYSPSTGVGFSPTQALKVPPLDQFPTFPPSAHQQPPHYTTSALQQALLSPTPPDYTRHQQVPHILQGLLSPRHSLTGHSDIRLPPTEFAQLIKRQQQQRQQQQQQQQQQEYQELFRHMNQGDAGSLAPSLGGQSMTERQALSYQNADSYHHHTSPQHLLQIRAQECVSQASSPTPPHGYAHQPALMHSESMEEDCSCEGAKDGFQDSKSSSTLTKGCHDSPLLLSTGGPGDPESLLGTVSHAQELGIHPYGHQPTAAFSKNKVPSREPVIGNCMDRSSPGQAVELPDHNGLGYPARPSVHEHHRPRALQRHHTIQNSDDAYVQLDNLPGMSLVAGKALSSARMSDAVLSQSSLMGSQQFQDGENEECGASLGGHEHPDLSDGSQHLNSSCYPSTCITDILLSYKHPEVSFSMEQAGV
Serine/threonine-protein kinase SIK2, sequence (Q9H0K1 whole entry): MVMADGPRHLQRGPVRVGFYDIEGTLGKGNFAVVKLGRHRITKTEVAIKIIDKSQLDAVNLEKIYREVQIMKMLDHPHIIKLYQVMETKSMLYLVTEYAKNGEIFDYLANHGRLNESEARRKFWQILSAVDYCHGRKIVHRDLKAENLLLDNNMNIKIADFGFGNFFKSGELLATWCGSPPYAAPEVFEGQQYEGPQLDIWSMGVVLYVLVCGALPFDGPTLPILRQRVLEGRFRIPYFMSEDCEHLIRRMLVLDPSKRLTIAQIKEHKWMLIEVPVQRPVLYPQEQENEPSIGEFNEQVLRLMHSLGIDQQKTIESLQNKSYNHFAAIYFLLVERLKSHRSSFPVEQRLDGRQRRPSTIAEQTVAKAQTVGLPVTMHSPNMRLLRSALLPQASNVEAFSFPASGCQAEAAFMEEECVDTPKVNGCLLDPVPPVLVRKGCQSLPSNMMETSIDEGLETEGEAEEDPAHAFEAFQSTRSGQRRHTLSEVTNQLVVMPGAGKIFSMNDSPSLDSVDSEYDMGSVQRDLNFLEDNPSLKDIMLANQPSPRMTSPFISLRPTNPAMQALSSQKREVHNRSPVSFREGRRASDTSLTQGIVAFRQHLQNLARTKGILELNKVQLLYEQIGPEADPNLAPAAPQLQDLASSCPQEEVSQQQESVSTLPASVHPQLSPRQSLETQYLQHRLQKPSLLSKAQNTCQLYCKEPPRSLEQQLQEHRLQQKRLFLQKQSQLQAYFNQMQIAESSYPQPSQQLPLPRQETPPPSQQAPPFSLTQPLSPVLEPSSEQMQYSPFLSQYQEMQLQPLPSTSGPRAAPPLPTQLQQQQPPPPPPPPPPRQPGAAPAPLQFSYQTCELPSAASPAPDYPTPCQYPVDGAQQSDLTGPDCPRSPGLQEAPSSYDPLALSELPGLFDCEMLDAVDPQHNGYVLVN

In the case of `COc1cc(-c2c3c(OC(F)F)cc(-c4cnn(C)c4)cc3nn2C)cc(OC(F)F)c1C(=O)N1CC(O)(C(F)(F)F)C1` [US20260062387, Example 62], the IC50 in test [1] stood at 3.9 nM; in test [2], 10.4 nM; in test [3], 7.9 nM.
As for `COc1cc(-c2c3c(OC(F)F)cc(-c4cn(C)nn4)cc3nn2C)cc(OC(F)F)c1C(=O)N1CC(O)(C(F)F)C1` [US20260062387, Example 64], the IC50 is 9 nM in test [1] and 15.8 nM in test [2].
For `COc1cc(-c2c3c(C(F)F)cc(-c4cnn(CCC(=O)N(C)C)c4)cc3nn2C)cc(OC(F)F)c1C(=O)N1CC(O)(C(F)(F)F)C1` [US20260062387, Example 65], the half-maximal inhibitory concentration (IC50) stood at 5.6 nM in test [1], 3 nM in test [2] and 9.6 nM in test [3].
The like results for `COc1cc(-c2c3c(C(F)F)cc(-c4cnn(C[C@@H](C)O)c4)cc3nn2C)cc(OC(F)F)c1C(=O)N1CC(O)(C(F)(F)F)C1` [US20260062387, Example 71] were, in that order, 6.1 nM, 6.8 nM and 3 nM.
As to `COc1cc(-c2c3c(C(F)F)cc(-c4cnn(C[C@H](C)O)c4)cc3nn2C)cc(OC(F)F)c1C(=O)N1CC(O)(C(F)(F)F)C1` [US20260062387, Example 72], the IC50 came out at 5.6 nM in test [1] and 3.9 nM in test [3].
